Data from patent US20060286608A1, “Method for screening transglutaminase 2 inhibitor or activator” (priority 2005, published 2006).
Where two headings read alike, the source gives them in different places. One block for each molecule: values may come before it. Residues, ends and D or L forms follow the SMILES beside them. *: point of attachment. Cbz = O=C(OCc1ccccc1)*; OtBu = CC(C)(C)O*

Legend:
TGase 2 [1] = target: T1, TGase 2 (Homo sapiens, UniProt P21980); assay: Effect of TGase inhibitors on reduced I-κBα in SH-SY5Y/TG cells; assay type: cell-based; conditions: SH-SY5Y/TG cells incubated for 30 min with TGase inhibitor, Western blotting
T1 construct: carry a pcDNA5/FRT vector containing a full-length human TGase 2 gene; expressed in transfected cells; host or cells: human neuroblastoma SH-SY5Y, Flp-In system, pcDNA5/FRT vector
T1 sequence (P21980 1-687): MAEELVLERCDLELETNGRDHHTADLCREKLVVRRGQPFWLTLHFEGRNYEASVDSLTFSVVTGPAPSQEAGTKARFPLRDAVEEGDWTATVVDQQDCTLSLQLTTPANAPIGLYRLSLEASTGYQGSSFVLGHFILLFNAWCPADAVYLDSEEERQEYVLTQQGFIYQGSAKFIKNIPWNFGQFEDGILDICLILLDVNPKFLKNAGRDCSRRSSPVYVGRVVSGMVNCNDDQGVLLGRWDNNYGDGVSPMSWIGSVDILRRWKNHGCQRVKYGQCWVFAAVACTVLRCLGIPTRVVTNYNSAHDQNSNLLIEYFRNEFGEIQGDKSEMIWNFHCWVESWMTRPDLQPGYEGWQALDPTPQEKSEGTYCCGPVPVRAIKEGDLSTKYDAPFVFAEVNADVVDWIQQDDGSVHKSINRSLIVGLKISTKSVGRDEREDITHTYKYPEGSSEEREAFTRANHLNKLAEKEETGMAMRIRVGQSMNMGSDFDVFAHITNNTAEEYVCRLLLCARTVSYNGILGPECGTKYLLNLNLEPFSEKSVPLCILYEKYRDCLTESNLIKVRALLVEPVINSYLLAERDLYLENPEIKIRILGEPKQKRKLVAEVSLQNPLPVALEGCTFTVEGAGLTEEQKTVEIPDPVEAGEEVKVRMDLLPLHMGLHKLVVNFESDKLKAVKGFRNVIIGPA
Description: Cystamine is known to inhibit TGase activity by blocking the access of a glutamine residue in substrate proteins to the TGase active site. Iodoacetamide (Sigma) is also known to inhibit TGase activity as a strong competitive irreversible inhibitor. […] E2 (DPVKG: SEQ. ID. NO. 6) and R2 (KVLDGQDP: SEQ. ID. NO. 7) were designed to contain a pro-elafin sequence and a pro-elafin/antiflamnin sequence, respectively, therein. […] In order to examine the effect of TGase inhibitors on the decrease in I-κBα level, the SH-SY5Y/TG culture was treated with different inhibitors for 30 min, followed by the separation of the cytosolic fraction using a nuclear extract kit (Sigma).
The effect of TGase 2 expression on the level of I-κBα was examined in EcR 293 and SH-SY5Y cells. To control TGase 2 expression, a tetracycline-induced expression system was applied to EcR 293 cell line (FIG. 6A). In FIG. 6A, EcR 293 cells were collected before incubation (left), after incubation in a medium containing 1 μg/ml of tetracycline for 24 hours (center), and after incubation in a medium containing 1 μg/ml of tetracycline for 24 hours and then in a fresh medium containing no tetracycline for an additional 24 hours (right). […] To examine whether TGase 2 inhibitors can result in the same effect, SH-SY5Y/TG cells were incubated for 30 min with a TGase inhibitor, such as cystamine, idoacetamide, E2 peptide, or R2 peptide.

[2] = target: full-length human NF-κB (p65) (human) (UniProt Q04206); assay: densitometry of co-immunoprecipitation / Western blot
I-κBα = assay: Proteasome inhibitor treatment of SH-SY5Y/TG cells, Western blotting for I-κBα and ubiquitin; conditions: SH-SY5Y/TG cells incubated for 6 hours with proteasome inhibitor; for increased ubiquitinated I-κBα: Western blotting; for level of I-κBα: cytosol
SH-SY5Y/TG cells [3] = system: SH-SY5Y/TG cells
BV-2 microglia = assay: Nitric oxide measurement (Griess reaction) in LPS-activated BV-2 microglia; assay type: cell-based, murine; conditions: BV-2 cells treated with LPS and NMMA (0, 50, 100 μM), 24 hours
Procedure: (§1) The BV-2 cells were grown and maintained in DMEM (Dulvecco's modified Eagle's medium) (Invitrogen) supplemented with 10% FCS (fetal calf serum) and penicillin/streptomycin at 37° C. in a humidified incubator under 5% CO2. To activate BV-2, the cells were treated with LPS (100 μg/ml; Sigma) for 24 hours. After LPS treatment for 24 hours with or without inducible nitric-oxide synthase(iNOS) inhibitor, 0, 50, and 100 μM N^G-monomethyl-L-arginine(L-NMMA) (Sigma), proteins were extracted with radioimmunoprecipitation assay buffer (1× phosphate-buffered saline (PBS), 1% Nonidet P-40, 0.5% sodium deoxycholate and 0.1% SDS) containing protease inhibitors from BV-2 harvest, followed by analysis for TGase 2 activity.
Accumulated nitric oxide was measured in the cell supernatant after LPS treatment for 24 hours by Griess reaction. A 200 μl aliquot of the cell supernatant in each well of a 96-well microtiter plate was mixed with 100 μl of the Griess reagent [1% sulfanilamide (Fluka), 0.1% naphthylethylenediamine dihydrochloride (Fluka), 2.5% H3PO4], and the absorbance was read at 540 nm using a plate reader.

TGase 2 [4] = assay: TGase activity assay in LPS-activated BV-2 microglia; assay type: cell-based, murine; conditions: BV-2 cells treated with LPS and NMMA (0, 50, 100 μM), 24 hours
Procedure: as §1
Enzymatic activity was determined using a modified TGase assay method for measuring the incorporation of [1,4-^14C] putrescine into succinylated casein.

SH-SY5Y/TG cells [5] = assay: LDH activity in medium and caspase-9 expression in proteasome inhibitor-treated SH-SY5Y/TG cells; conditions: SH-SY5Y/TG cells incubated for 6 hours with proteasome inhibitor
[6] = target: T2, full-length human I-κBα (free form), P25963
T2 chain: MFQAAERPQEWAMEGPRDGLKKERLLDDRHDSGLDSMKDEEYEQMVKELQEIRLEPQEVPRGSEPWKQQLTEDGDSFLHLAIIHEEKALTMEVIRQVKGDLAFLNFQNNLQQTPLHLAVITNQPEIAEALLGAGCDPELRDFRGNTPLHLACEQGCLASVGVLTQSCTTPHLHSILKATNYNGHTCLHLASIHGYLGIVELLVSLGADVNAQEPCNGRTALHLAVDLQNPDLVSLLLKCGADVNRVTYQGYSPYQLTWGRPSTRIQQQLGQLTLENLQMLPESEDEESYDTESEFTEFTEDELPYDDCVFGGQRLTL

[7] = target: T3, human recombinant NF-κB(p52) protein, Q00653
T3 chain: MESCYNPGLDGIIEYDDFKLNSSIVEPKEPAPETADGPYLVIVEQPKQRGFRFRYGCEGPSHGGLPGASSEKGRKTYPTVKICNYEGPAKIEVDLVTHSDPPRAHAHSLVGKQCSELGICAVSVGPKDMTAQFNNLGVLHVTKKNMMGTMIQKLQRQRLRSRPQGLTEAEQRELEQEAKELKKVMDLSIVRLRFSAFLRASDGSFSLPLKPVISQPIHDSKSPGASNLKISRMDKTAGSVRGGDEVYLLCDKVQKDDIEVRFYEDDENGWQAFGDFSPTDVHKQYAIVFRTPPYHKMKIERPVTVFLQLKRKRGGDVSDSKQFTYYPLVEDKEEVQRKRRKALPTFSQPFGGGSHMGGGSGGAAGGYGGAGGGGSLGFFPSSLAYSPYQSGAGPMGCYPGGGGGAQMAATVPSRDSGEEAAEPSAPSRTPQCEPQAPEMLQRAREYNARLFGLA

Sequence of full-length human NF-κB (p65) (human) (Q04206 whole entry): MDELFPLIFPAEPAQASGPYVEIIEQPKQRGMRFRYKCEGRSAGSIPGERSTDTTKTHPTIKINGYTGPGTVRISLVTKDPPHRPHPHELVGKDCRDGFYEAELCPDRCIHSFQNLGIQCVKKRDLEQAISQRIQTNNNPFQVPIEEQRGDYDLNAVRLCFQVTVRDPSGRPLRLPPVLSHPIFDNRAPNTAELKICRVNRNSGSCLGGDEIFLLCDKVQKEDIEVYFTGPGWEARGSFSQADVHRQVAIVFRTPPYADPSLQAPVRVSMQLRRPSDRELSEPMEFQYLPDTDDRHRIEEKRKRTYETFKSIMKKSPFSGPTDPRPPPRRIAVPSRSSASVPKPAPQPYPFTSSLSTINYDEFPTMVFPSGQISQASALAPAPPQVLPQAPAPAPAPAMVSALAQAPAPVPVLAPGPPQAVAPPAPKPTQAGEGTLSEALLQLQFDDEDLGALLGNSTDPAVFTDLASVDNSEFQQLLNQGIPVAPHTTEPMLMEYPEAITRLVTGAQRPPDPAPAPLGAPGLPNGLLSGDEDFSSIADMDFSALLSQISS

Molecule: KVLDGQDP (pro-elafin/antiflammin sequence) [R2 peptide]
- cytosolic I-κBα level (TGase 2 [1]): reduce the cytosolic I-κBα level almost to the control level

- loss of binding efficiency relative to free I-κBα [2]: > 90%
Molecule: polymerized I-κBα (full-length human I-κBα cross-linked by TGase 2) (from UniProt P25963 1-317)

- LDH activity in the medium (SH-SY5Y/TG cells [3]): not detected
- caspase-9 expression by Western blotting (SH-SY5Y/TG cells [3]): not detected
Molecule: CC[C@H](C)[C@H](NC(=O)OCc1ccccc1)C(=O)N[C@@H](CCC(=O)OC(C)(C)C)C(=O)N[C@@H](C)C(=O)N[C@H](C=O)CC(C)C [carbobenzoxy-L-isoleucyl-gamma-t-butyl-L-alanyl-L-leucinal] (Cbz-IE(OtBu)AL-aldehyde)
- increased ubiquitinated I-κBα (I-κBα): not detected
- level of I-κBα (I-κBα): increased

- TGase activity (TGase 2 [4]): did not affect
Molecule: CNC(=N)NCCC[C@H](N)C(=O)O [NMMA, N^G-monomethyl-L-arginine]
- NO secretion (BV-2 microglia): reduced NO secretion in a dose-dependent manner

Molecule: DPVKG (pro-elafin sequence) [E2 peptide]
- cytosolic I-κBα level (TGase 2 [1]): reduce the cytosolic I-κBα level almost to the control level

Molecule: NCCSSCCN [cystamine, Cystamine]
- cytosolic I-κBα level (TGase 2 [1]): reduce the cytosolic I-κBα level almost to the control level

Molecule: NC(=O)CI [idoacetamide, Iodoacetamide]
- cytosolic I-κBα level (TGase 2 [1]): reduce the cytosolic I-κBα level almost to the control level

Molecule: CC(C)C[C@@H](C=O)NC(=O)[C@H](CC(C)C)NC(=O)[C@H](CC(C)C)NC(=O)OCc1ccccc1 [MG132] (Cbz-Leu-Leu-Leu-aldehyde)
- increased ubiquitinated I-κBα (I-κBα): not detected
- level of I-κBα (I-κBα): increased
- LDH activity in the medium (SH-SY5Y/TG cells [3]): not detected
- caspase-9 expression by Western blotting (SH-SY5Y/TG cells [3]): not detected

- LDH activity in the medium (SH-SY5Y/TG cells [5]): not detected
- caspase-9 expression by Western blotting (SH-SY5Y/TG cells [5]): not detected
Molecule: CC(=O)N[C@@H](CSC(=O)[C@]1([C@@H](O)C(C)C)NC(=O)[C@H](C)[C@@H]1O)C(=O)O [lactacystin]
- increased ubiquitinated I-κBα (I-κBα): not detected
- level of I-κBα (I-κBα): increased

B1: guinea pig liver TGase 2 (protein)
chain: AEDLILERCDLQLEVNGRDHRTADLCRERLVLRRGQPFWLTLHFEGRGYEAGVDTLTFNAVTGPDPSEEAGTMARFSLSSAVEGGTWSASAVDQQDSTVSLLLSTPADAPIGLYRLSLEASTGYQGSSFVLGHFILLYNPRCPADAVYMDSDQERQEYVLTQQGFIYQGSAKFINGIPWNFGQFEDGILDICLMLLDTNPKFLKNAGQDCSRRSRPVYVGRVVSAMVNCNDDQGVLQGRWDNNYSDGVSPMSWIGSVDILRRWKDYGCQRVKYGQCWVFAAVACTVLRCLGIPTRVVTNFNSAHDQNSNLLIEYFRNESGEIEGNKSEMIWNFHCWVESWMTRPDLEPGYEGWQALDPTPQEKSEGTYCCGPVPVRAIKEGHLNVKYDAPFVFAEVNADVVNWIRQKDGSLRKSINHLVVGLKISTKSVGRDEREDITHTYKYPEGSEEEREAFVRANHLNKLATKEEAQEETGVAMRIRVGQNMTMGSDFDIFAYITNGTAESHECQLLLCARIVSYNGVLGPVCSTNDLLNLTLDPFSENSIPLHILYEKYGDYLTESNLIKVRGLLIEPAANSYVLAERDIYLENPEIKIRVLGEPKQNRKLIAEVSLKNPLPVPLLGCIFTVEGAGLTKDQKSVEVPDPVEAGEQAKVRVDLLPTEVGLHKLVVNFECDKLKAVKGYRNVIIGPA
- polymerization of I-κBα (in vitro cross-linking, Western blotting) [6]: resulted in completely polymerized I-κBα
- polymerization of NF-κB(p52) (in vitro cross-linking, Coomassie staining) [7]: The same polymerization was not observed
